Measurements published in patent US9278943B2, “Methods of using as analgesics 1-benzyl-1-hydroxy-2, 3-diamino-propyl amines, 3-benzyl-3-hydroxy-2-amino-propionic acid amides and related compounds” (Exonhit Therapeutics SA, priority 2005, dated 2016).
Where a name gives a salt, the structure may show the parent alone. Read-outs that look alike come from different tables or passages of the source. Values belong to the compound of their own block, whether it stands above or below them.

Legend:
[1] = test system: tactile allodynia in the rat Chung model (L5/L6 spinal nerve ligation); experiment: Chung model: reversal of tactile allodynia (von Frey hairs) after spinal nerve ligation; format: in vivo; conditions: read-out: Peak % Pain reversal: time post dose; for inhibition in vivo at 1 mg/kg: 1000 μg/kg IP; for inhibition in vivo at 0.3 mg/kg: 300 μg/kg IP
Source text: An art-accepted model or assay for measuring an analgesic effect of a compound in chronic pain (in particular peripheral neuropathy) is the model known as Kim and Chung 1992, Pain […], pp 355-363 (Chung model). This model involves the surgical ligation of the L5 (and optionally the L6) spinal nerves on one side in experimental animals. Rats recovering from the surgery gain weight and display a level of general activity similar to that of normal rats. However, these rats develop abnormalities of the foot, wherein the hindpaw is moderately everted and the toes are held together. More importantly, the hindpaw on the side affected by the surgery appears to become sensitive to low-threshold mechanical stimuli and will perceive pain instead of the faint sensation of touch. This sensitivity to normally non-painful touch, called “tactile allodynia”, develops within the first week after surgery and lasts for at least two months. The allodynia response includes lifting the affected hindpaw to escape from the stimulus, licking the paw and holding it in the air for many seconds. None of these responses is normally seen in the control group.
To produce the tactile allodynia, rats are anesthetized before surgery. The surgical site is shaved and prepared either with betadine or Novacaine. Incision is made from the thoracic vertebra Xlll down toward the sacrum. Muscle tissue is separated from the spinal vertebra (left side) at the L4-S2 levels. The L6 vertebra is located and the transverse process is carefully removed with a small rongeur to expose the L4-L6 spinal nerves. The L5 and L6 spinal nerves are isolated and tightly ligated with 6-0 silk thread. The same procedure is done on the right side as a control, except no ligation of the spinal nerves is performed.
After a complete hemostasis is confirmed, the wounds are sutured. A small amount of antibiotic ointment is applied to the incised area, and the rat is transferred to the recovery plastic cage under a regulated heat-temperature lamp.
On the day of the experiment, at least seven days after the surgery, typically six rats per test group are administered the test drugs by intraperitoneal (i.p.) injection or oral gavage (p.o.). For i.p. administration, the compounds are formulated in H2O and given in a volume of 1 ml/kg body weight by injecting into the intraperitoneal cavity. For p.o. administration, the compounds are formulated in H2O and given in a volume of 1 ml/kg body weight using an 18-gauge, 3 inch gavage needle that is slowly inserted through the esophagus into the stomach.
Tactile allodynia is assessed via von Frey hairs, which are a series of fine hairs with incremental differences in stiffness. Rats are placed in a plastic cage with a wire mesh bottom and allowed to acclimate for approximately 30 minutes. To establish the pre-drug baseline, the von Frey hairs are applied perpendicularly through the mesh to the mid-plantar region of the rats' hindpaw with sufficient force to cause slight buckling and held for 6-8 seconds. The applied force has been calculated to range from 0.41 to 15.1 grams. If the paw is sharply withdrawn, it is considered a positive response. A normal animal will not respond to stimuli in this range, but a surgically ligated paw will be withdrawn in response to a 1-2 gram hair. The 50% paw withdrawal threshold is determined using the method of Dixon, W. J., Ann. Rev. Pharmacol. Toxicol. 20:441-462 (1980) hereby incorporated by reference. Tactile allodynia is measured prior to and 15, 30, and 60 minutes after drug administration. The post-drug threshold is compared to the pre-drug threshold and the percent reversal of tactile sensitivity is calculated based on a normal threshold of 15.1 grams.
Table 1 below indicates the degree of pain reversal obtained in the Chung model with exemplary compounds used in accordance with the invention. […]

[2] = test system: glycosphingolipid biosynthesis; conditions: via inhibition of glycosphingolipid biosynthesis; cited from earlier work
synaptic function = conditions: cited from earlier work
[3] = test system: transient forebrain ischemia in rats; conditions: treatment after transient forebrain ischemia in rats; 8-arm maze task; cited from earlier work
GlcCer synthase (GCS) = target: T1, GlcCer synthase (GCS) (Homo sapiens, UniProt Q16739); conditions: cited from earlier work
T1 sequence (Q16739 1-394): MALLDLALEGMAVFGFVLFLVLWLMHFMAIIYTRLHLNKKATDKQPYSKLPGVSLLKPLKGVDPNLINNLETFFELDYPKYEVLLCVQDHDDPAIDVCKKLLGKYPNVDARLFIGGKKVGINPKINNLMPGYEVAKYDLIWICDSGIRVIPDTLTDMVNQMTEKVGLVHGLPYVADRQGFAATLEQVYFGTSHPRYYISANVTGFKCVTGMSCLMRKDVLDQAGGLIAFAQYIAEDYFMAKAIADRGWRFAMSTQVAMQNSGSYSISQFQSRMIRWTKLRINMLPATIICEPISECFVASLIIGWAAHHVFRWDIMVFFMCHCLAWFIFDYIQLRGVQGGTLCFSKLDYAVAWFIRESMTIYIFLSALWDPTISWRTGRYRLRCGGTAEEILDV

[4] = 1 h, 30 μg/kg IP, peak at 60 min post dose

SMILES: CCCCCCCCCC(=O)N[C@H](CN1CCOCC1)[C@H](O)c1ccccc1 [D-threo-PDMP, 1-Phenyl-2-decanoylamino-3-morpholino-1-propanol]
- inhibition in vivo at 1 mg/kg ([1]; 1 h, peak at 60 min post dose): 77%
- antitumor activity [2]: has antitumor activity
- effect on synaptic function (synaptic function): suppresses synaptic function

SMILES: N[C@@H](C(=O)N1CCCC1)[C@@H](O)c1ccc(Cl)c(Cl)c1 (racemic) [Compound 15, DL-threo-2-Amino-3-(3,4-dichlorophenyl)-3-hydroxy-1-(pyrrolidin-1-yl)propan-1-one hydrochloride]
- inhibition in vivo at 0.3 mg/kg ([1]; 1 h, peak at 60 min post dose): 42%

SMILES: CCCCCCCCCC(=O)N[C@@H](CN1CCOCC1)[C@@H](O)c1ccccc1 [L-threo-PDMP, (1S,2S)-1-phenyl-2-decanoylamino-3-morpholino-1-propanol, reference compound]
- inhibition in vivo at 0.03 mg/kg ([1]; 0.5 h, 30 μg/kg PO, peak at 30 min post dose): 100%
- deficit of a well learned spatial memory [3]: ameliorated the deficit

SMILES: N[C@@H](CN1CCCC1)[C@@H](O)c1ccc2c(c1)OCCO2 (racemic) [Compound 6, DL-threo-2-Amino-1-(2,3-dihydrobenzo[b][1,4]dioxin-6-yl)-3-(pyrrolidin-1-yl)propan-1-ol]
- inhibition in vivo at 0.03 mg/kg [1, 4]: 92%

SMILES: CCCCCCCCCC(=O)N[C@@H](CN1CCCC1)[C@@H](O)c1ccc2c(c1)OCCO2 (racemic) [Compound 7, N-(DL-threo-1-(2,3-dihydrobenzol[b][1,4]dioxin-6-yl)-1-hydroxy-3-(pyrrolidin-1-yl)propan-2-yl)decanamide]
- inhibition in vivo at 0.001 mg/kg ([1]; 0.5 h, 1 μg/kg IP, peak at 30 min post dose): 26%

SMILES: C[C@H](N[C@H](CN1CCOCC1)[C@H](O)c1ccccc1)c1ccccc1 [Compound 5, D-threo-2-((S)-1-Phenylethylamino)-3-morpholino-1-phenylpropan-1-ol dihydrochloride]
- inhibition in vivo at 0.3 mg/kg ([1]; 1 h, peak at 60 min post dose): 85%

SMILES: Cc1ccc([C@H](O)[C@@H](N)C(=O)N2CCCC2)cc1 (racemic) [Compound 17, DL-threo-2-Amino-3-hydroxy-1-(pyrrolidin-1-yl)-3-p-tolylpropan-1-one hydrochloride]
- inhibition in vivo at 0.3 mg/kg ([1]; 1 h, peak at 60 min post dose): 100%

SMILES: CCCCCCCCCC(=O)N[C@@H](CN1CCOCC1)[C@H](O)c1ccccc1 (racemic) [DL-erythro-PDMP, 1-Phenyl-2-decanoylamino-3-morpholino-1-propanol, reference compound]
- inhibition in vivo at 1 mg/kg ([1]; 0.5 h, peak at 30 min post dose): 68%

SMILES: O=C(N[C@H](CN1CCCC1)[C@H](O)c1ccccc1)OCc1ccccc1 [PBPP, D-threo-1-phenyl-2-benzyloxycarbonylamino-3-pyrrolidino-1-propanol]
- inhibition of GCS (GlcCer synthase (GCS)): potent GCS inhibitor

- melting point: 166.4 to 170.9 °C
SMILES: N[C@@H](CN1CCOCC1)[C@@H](O)c1ccccc1 (as salt: hydrochloride) [Compound 2, L-threo-2-Amino-3-morpholino-1-phenylpropan-1-ol dihydrochloride]

SMILES: N[C@@H](C(=O)N1CCCC1)[C@@H](O)c1ccccc1 (racemic) [Compound 16, DL-threo-2-Amino-3-hydroxy-3-phenyl-1-(pyrrolidin-1-yl)propan-1-one hydrochloride]
- inhibition in vivo at 0.3 mg/kg ([1]; 1 h, peak at 60 min post dose): 93%

SMILES: CCCCCCCCCCCCCCCC(=O)N[C@H](CN1CCCC1)[C@H](O)c1ccc(O)cc1 [D-threo-4′-hydroxy-P4]
- inhibition of GCS (GlcCer synthase (GCS)): one of the most potent inhibitor of GCS

SMILES: COc1ccc([C@H](O)[C@@H](N)CN2CCCC2)cc1 (racemic) [Compound 9, DL-threo-2-Amino-1-(4-methoxyphenyl)-3-(pyrrolidin-1-yl)propan-1-ol]
- inhibition in vivo at 0.03 mg/kg [1, 4]: 88%

SMILES: N[C@@H](CN1CCOCC1)[C@@H](O)c1ccccc1 [Compound 2, L-threo-2-Amino-3-morpholino-1-phenylpropan-1-ol dihydrochloride]
- inhibition in vivo at 0.1 mg/kg ([1]; 1 h, 100 μg/kg IP, peak at 60 min post dose): 91%
